# According to patent publication US11214586B2, “Rhodamine triplet state complex and preparation and photodynamic therapy (PDT) study thereof” (SOUTHERN UNIVERSITY OF SCIENCE AND TECHNOLOGY, priority 2018, dated 2022):
# Where two headings read alike, the source gives them in different places.
# Key:
# [1] = UV/Vis absorption spectra; format: physicochemical; conditions: for λabs: absorption maximum, in CH3CN; for ε × 10^4: molar extinction coefficient at the absorption maxima, values × 10^4
# Experimental: (§1) The UV-vis absorption spectra were taken on Cary 60 UV-vis spectrophotometer. Steady-state emission spectra at room temperature were recorded on an Edinburgh Instruments FLS980 fluorescence spectrometer. Quartz cuvettes (path length=1 cm) were used in all spectrophotometric and fluorometric measurements. NMR spectra were recorded on a Bruker AVANCE 400 (^1H NMR for 400 MHz and ^13C NMR for 100 MHz) Fourier transform NMR spectrometer with chemical shifts reported relative to tetramethylsilane, (CH3)4Si. High-resolution MS spectra were performed on an Orbitrap Fusion Tribrid mass spectrometer. Elemental analyses of the newly synthesized complexes were preformed on a Elementar Vario EL Cube elemental analyzer at Sun Yat-sen University. The nanosecond time-resolved transient-difference absorption spectra were detected by using Edinburgh LP920 instruments (Edinburgh Instruments, U.K.). All solutions for transient absorption studies were degassed on a high-vacuum line in a two-compartment cell consisting of a 10-ml Pyrex bulb and a 1-cm or 4-mm path length quartz cuvette and sealed from the atmosphere by a Bibby Rotaflo HP6 Teflon stopper. The solutions were rigorously degassed with at least four successive freeze-pump-thaw cycles. Emission lifetime measurements were performed using a conventional laser system. The excitation source used was a 355-nm output (third harmonic) of a Spectra-Physics Quanta-Ray Q-switched GCR-150-10 pulsed Nd-YAG laser. Luminescence decay signals were detected by a Hamamatsu R928 PMT and recorded on a Tektronix Model TDS-620A (500 MHz, 2 GS/s) digital oscilloscope and analyzed using a program for exponential fits. Absolute quantum yields were measured by HAMAMATSU-C11347.
# [2] = Steady-state emission spectra and absolute luminescence quantum yield; format: physicochemical; conditions: for λem: Conc. = 1.0 × 10^−6M in MeOH; for Φlum: absolute luminescence quantum yield measured by HAMAMATSU-C11347
# Experimental: as §1
# [3] = Nanosecond transient absorption difference spectroscopy; format: physicochemical; conditions: for TT (triplet-state lifetimes): measured by transient absorption in CH3CN
# Description: Nanosecond transient absorption (TA) difference spectroscopy was employed to investigate the triplet excited states of M-Rho (FIG. 2c and FIGS. 16-19). Upon pulsed laser excitation at 355 nm, an intense bleaching signal at 575 nm with lifetime in microsecond range is observed, which is ascribed to the depletion of ground state rhodamine absorption. Such a long-lived excited state should be localized on the rhodamine unit, and is assigned as the ^3IL excited state of rhodamine in M-Rho. The absorption signal at 610-800 nm is due to the rhodamine ^3IL excited state absorption. In contrast, no signal from this triplet excited state is detected in bpy-Rho because of the lack of efficient ISC. On the other hand, only the transient absorption signals originating from the corresponding ^3MLCT excited states are observed in the rhodamine-free analogues (FIGS. 20-21).
# as §1
# [4] = Singlet oxygen quantum yield; format: physicochemical; conditions: for ΦΔ (singlet oxygen quantum yield): relative to rose bengal (ΦΔ = 0.76)
# Description: (§2) The long-lived triplet excited state of rhodamine is anticipated to interact with molecular oxygen (^3O2) to form singlet oxygen (^1O2), which is useful for PDT applications. The ability of M-Rho to produce ^1O2 has been evaluated spectroscopically by the observation of ^1O2 emission at about 1270 nm (inset of FIG. 2b). Remarkable ^1O2 emission is observed in Ir-Rho, Re-Rho and Pt-Rho but not for Rh-Rho and bpy-Rho. By monitoring the diminution of the characteristic absorption of the ^1O2 scavenger 1,3-diphenylisobenzofuran (DPBF) at 410 nm, ^1O2 generation is also confirmed and the corresponding quantum yields (ϕΔ) for the complexes are determined (Table 1). […] The rate and quantum yield of ^1O2 generation are found to vary with different metal systems.
# Singlet oxygen quantum yield was determined by comparing the ^1O2 emission intensity of Rose Bengal and M-Rho.
# [5] = Singlet oxygen emission at about 1270 nm; format: physicochemical; conditions: in CH3CN
# Experimental: Singlet oxygen emission was detected by using FLS-980 spectrofluorometer. All of the compounds were dissolved in CH3CN. The absorbance at 532 nm was adjusted to be around 1.7 for all the compounds. Upon measurements, an 850 nm long-pass filter was inserted in between the sample and the detector to avoid many high-order diffraction from the visible emission.
# [6] = system: MCF-7 cells; assay: Mitochondrial membrane potential, flow-cytometry-based JC-1 assay; format: cell-based, human; conditions: 5 uM, 11 W lamp 30 min
# Experimental: Mitochondrial depolarization was assessed by flow cytometry after incubation with JC-1 Molecular Probes (Thermo Fisher Scientific, USA). Briefly, The MCF-7 cells were seeded in six-well plate, incubated for 24 h in 5% CO2 at 37° C. Next, added to compounds (bpy-Rho and M-Rho) in medium make the final concentrations of 5 uM compounds. After irradiation treatment (11 W lamp 30 min). The cells were resuspended in warm PBS, and incubated with JC-1 (4 μg/ml) for 30 min at 37° C. and 5% CO2. Thereafter the cells were centrifuged, resuspended in 600 μL of PBS, and analyzed immediately on a flow cytometer (Becton Dickinson, San Jose, Calif., USA). Untreated cells were used as negative controls.
# [7] = Octanol-water partition coefficient
# Description: (§3) Octanol-water partition coefficients (log Po/w)^[27] of bpy-Rho and M-Rho have been measured in order to study their lipophilic/hydrophilic characters. The higher is the log Po/w value associated with the dye, the higher is its lipophilic character.
# [8] = DPBF 1O2 scavenger absorbance under 11-W lamp irradiation; format: physicochemical; conditions: irradiation with a 11-W lamp; 50 μM DPBF, 5 μM compound
# Experimental: Rose Bengal was measured in MeOH.
# as §2
# [9] = system: MCF-7 cells; assay: Intracellular ROS, DCFH-DA assay; format: cell-based, human; conditions: 5 μM, 11-W lamp for 30 min
# Experimental: The MCF-7 cells were seeded in eight-well chambered coverglasses (lab-Tek, Nunc, USA) and six-well plate, incubated for 24 h in 5% CO2 at 37° C. Next, added to compounds (bpy-Rho and M-Rho) in medium make the final concentrations of 5 μM compounds. After irradiation treatment (11 W lamp 30 min), cells were promptly washed with PBS and incubated with 4 μg/ml 2′7′-dichloro-fluoreseindiacetate (DCFH-DA) for 30 min, and intracellular ROS generation was evaluated by flow cytometry and confocal microscopy.
# [10] = system: MCF-7 cells; assay: Subcellular localization with MitoTracker Green; format: cell-based, human; conditions: 5 μM, co-stained with MitoTracker Green
# Experimental: MCF-7 cells (5000 cells) were cultured in eight-well chambered coverglasses (lab-Tek, Nunc, USA) for 24 h. Later, added to the cells to give final complexes concentrations (5 μM). After incubation for 30 min, The cells were treated with Mito-Tracker for 10 min to stain specifically the mitochondria (1:5000 dilution in PBS). After washing three times with PBS, followed by confocal microscopy imaging.
# [11] = system: MCF-7 cells; assay: Mitochondria-localized ROS, MitoSOX Red; format: cell-based, human; conditions: 10 μM, 11 W lamp irradiation for 10 min
# Experimental: (a) Confocal fluorescence microscopic images of MCF-7 cells treated with MitoSOX (1.0 μM) according to the treatment variables, including with coincubation with bpy-Rho and M-Rho (10 μM), 11 W lamp irradiation for 10 min. (b) Flow cytometry analysis of MCF-7 cells (n=10000 cells) after treatment with MitoSox and different Rhodamine-metal Complexes mean fluorescence intensity per cell.
# On the basis of the results of intracellular ROS production and colocalization study, it is reasonable to anticipate that the ROS is essentially generated within the mitochondria. MitoSOX Red reagent, a mitochondrial ROS indicator, is also used to probe specifically the generation of mitochondria-localized ROS. Intense red fluorescence from the oxidation of MitoSOX is observed in both confocal fluorescence microscopy images (FIG. 26a) and flow cytometry analysis (FIG. 26b) of MCG-7 cells incubated with MitoSOX and M-Rho.
# [12] = physchem
# Description: as §3
# [13] = octanol-water, literature value; cited from earlier work
Compound,λabs [1] [nm],ε × 10^4 [1] [M^−1 cm^−1],λem [2] [nm],Φlum [2],TT (triplet-state lifetimes) [3] [μs],"rate and quantum yield of 1O2 generation, ranking ([4]; among M-Rho)",ΦΔ (singlet oxygen quantum yield) [4],1O2 emission at about 1270 nm [5],ratio of JC-1 aggregates/JC-1 monomers [6],log Po/w [7],emission ([2]; in MeCN) [nm],signal from rhodamine triplet excited state ([3]; excitation at 355 nm),DPBF absorption at 410 nm [8],intracellular ROS generation [9],mitochondrial localization [10],MitoSOX red fluorescence (mitochondria-localized ROS) [11],logP [12],log Po/w [13]
CCN(CC)c1ccc2c(-c3ccnc(-c4cc(C)ccn4)c3)c3ccc(=[N+](CC)CC)cc-3oc2c1.F[P-](F)(F)(F)(F)F.F[P-](F)(F)(F)(F)F.c1ccc(-c2cccc[c]2[Rh+][c]2ccccc2-c2ccccn2)nc1 [Rh-Rho],574,8.24,629,0.23,14.1,worst photosensitizer,0.37,not,11.28,−1.05,–,–,–,–,–,–,–,–
CCN(CC)c1ccc2c(-c3ccnc(-c4cc(C)ccn4)c3)c3ccc(=[N+](CC)CC)cc-3oc2c1.F[P-](F)(F)(F)(F)F.[C](#Cc1ccccc1)[Pt][C]#Cc1ccccc1 [Pt-Rho],574,7.96,631,0.062,8.49,–,0.57,Remarkable,8.16,1.26,–,–,–,–,–,–,–,–
"CCN(CC)c1ccc2c(-c3ccnc(-c4cc(C)ccn4)c3)c3ccc(=[N+](CC)CC)cc-3oc2c1 [bpy-Rho, N-(6-(diethylamino)-9-(4′-methyl-[2,2′-bipyridin]-4-yl)-3H-xanthen-3-ylidene)-N-ethylethanaminium]",564,9.86,598,0.29,–,–,0.08,not,14.23,–,598,no signal,negligible decrease,negligible or a little amount of ROS,relatively less mitochondria-localized,very weak red fluorescence,0.49,–
COC(=O)c1ccccc1-c1c2ccc(=N)cc-2oc2cc(N)ccc12.Cl [rhodamine 123],–,–,–,–,–,–,–,–,–,–,–,–,–,–,–,–,–,−0.62
